Data published in US8372811B2, “Composition for treating retinopathy or glaucoma comprising thrombin derived peptides” (Eyegene, Inc., priority 2007, dated 2013).
Entries after “also recorded” stand apart in the source; their conditions may differ. Non-standard residues stand in square brackets, D forms with d. No end group written: not given here.

Test system: mouse retinal angiogenesis
Test: Mouse model for inducing retinal angiogenesis using oxygen partial pressure (75% oxygen, then normal 20%); FITC-dextran fluorescence microscopy of retina
Assay type: in vivo
Details: intraperitoneally; for retinal blood vessels observed (Example 3): FIG. 2 and FIG. 5; for retinal blood vessels observed (Example 3) / retinal blood vessels observed (Example 2): dose not given; for retinal blood vessels observed (Example 2): FIG. 4; for effect compared between polypeptides SEQ ID NOs: 1, 2 and SEQ ID NO: 3 (Example 2): FIG. 4 versus FIG. 2
Experimental: For this purpose, a mouse was kept for 5 days under a high oxygen environment with a constant 75% oxygen partial pressure 7 days after the mouse was born in an apparatus that can adjust an oxygen partial pressure, and then kept under a 20% oxygen pressure which is a normal oxygen partial pressure. […] In order to observe the blood vessels, 50 mg of FITC-dextran having a molecular weight of 2×10^6 was dissolved in 1 ml of saline, and the resultant solution was injected through the left ventricle. The mouse eyeball was extracted immediately after the injection. The extracted eyeball was washed with saline, fixed with 1% paraformaldehyde for 4 to 24 hours, and then a lens was removed from the eyeball. Then, the resultant mouse retina was evenly spread over a glass slide, and the glass slide was sealed with glycerine-gelatin, and then observed using a fluorescence microscope. The degree on abnormal vessel, avascular lesion and vascular leakage caused by the retinopathy was digitalized and the retinopathy score was compared.

Row | Substance | effect compared with TP508 (SEQ ID NO: 3) (Example 3) | retinal blood vessels observed (Example 3) | retinal blood vessels observed (Example 2) | effect compared between polypeptides SEQ ID NOs: 1, 2 and SEQ ID NO: 3 (Example 2)
1 | Thrombin [SEQ ID NO: 4] | had a similar effect as the TP508 | normal angiogenesis is induced but abnormal angiogenesis is suppressed and the vascular leakage is decreased; also recorded: the abnormal angiogenesis, avascular lesion and vascular leakage were decreased and the normal blood vessels were observed |  | 
2 | Cyclo(-Arg-Gly-Asp-D-Phe-Val) (cyclo(RGD[dF]V)) [SEQ ID NO: 1] |  |  | normal angiogenesis is induced but abnormal angiogenesis is suppressed; also recorded: the abnormal angiogenesis was decreased and the normal blood vessels were observed | the same advantageous effect
3 | H-Gly-Phe-Gly-Arg-Gly-Asp-Ser-Pro-Cys-Ala-OH (H-GFGRGDSPCA-OH) [SEQ ID NO: 2] |  |  | normal angiogenesis is induced but abnormal angiogenesis is suppressed; also recorded: the abnormal angiogenesis was decreased and the normal blood vessels were observed | the same advantageous effect
4 | DEGKRGDGDACEGDS [SEQ ID NO: 6, smaller peptide than the TP508; chemical synthesis] | had a similar effect as the TP508 | normal angiogenesis is induced but abnormal angiogenesis is suppressed and the vascular leakage is decreased; also recorded: the abnormal angiogenesis, avascular lesion and vascular leakage were decreased and the normal blood vessels were observed |  | 
